These results are taken from US10723764B2, “Anti-microbial peptides and methods of use thereof” (priority 2011, dated 2020).

Read-outs that look alike come from different tables or passages of the source. Marks after values point to notes of the source that are not given here. Where a SMILES comes first, the peptide text is derived from it. Where no end group is shown, it is not given here. [ ]: non-standard residue; d: D form.

The target of one series is chymotrypsin (Bos taurus, UniProt P00766). On the procedure:
One of the hurdles in developing peptide-based antimicrobials is peptide stability to protease (Wang, G. (2010) Antimicrobial Peptides: Discovery, Design and Novel Therapeutic Strategies, CABI, England). […] This was done by modifying the standard microdilution antimicrobial assays (Wang, G. (2008) J. Biol. Chem., 283:32637-32643). Specifically, the bacterial wells with a high peptide concentration (e.g. 100 μM) are duplicated (e.g., two for antimicrobial assays and two for protease stability assays). As an illustration, chymotrypsin was applied to the duplicated wells at a peptide:protease molar ratio of 25:1. Numerous peptides were screened in this manner.
To identify protease-resistant peptide templates, 30 synthetic peptides were screened (Table 9; Wang et al. (2008) Antimicrob. Agents Chemother., 52:3438-3440). A standard microdilution assay protocol (Li et al. (2006) J. Am. Chem. Soc., 128:5776-5785) was modified to include proteases into the duplicated wells with high concentrations of peptide so that both antimicrobial activity and protease stability could be evaluated simultaneously. […] (peptide:protease molar ratio of 40:1).

For another series, the system named is human erythrocytes. As to conditions: human red blood cells; Table 6. On the procedure: Peptide hemolysis was assayed using an established protocol (Malmsten et al. (2011) PLoS One 6:e16400). In brief, fresh blood, obtained from the UNMC Blood Bank, was washed three times with PBS buffer and made into a 5% solution. To 90 μL of this solution, 10 μL of a peptide solution was added and incubated at 37° C. for one hour. After centrifugation at 13,000 rpm, aliquots of the supernatant were transferred to a fresh 96 well microplate. The absorbance of the solutions was measured at 545 nm to detect the amount of hemoglobin released. The percent lysis was calculated by assuming 100% release when treated with 2% Triton X-100 and no lysis (0%) when treated with PBS buffer. HL50 was the peptide concentration that caused 50% lysis of human erythrocytes. The cell selectivity (CS) indexes were calculated as the ratio of HL50 to the MIC of the peptide against S. aureus USA300.
The hemolytic effects of the six peptides were also compared on human red blood cells (hRBC) using an established protocol (Malmsten et al. (2011) PLoS One 6:e16400). […] A high TI indicates good cell selectivity.
Peptide hemolysis was assayed using an established protocol (Menousek et al. (2012) Int. J. Antimicrob. Agents 39:402-406; Malmsten et al. (2011) PLoS One 6:e16400). Briefly, blood cells were washed three times with phosphate-buffered saline (PBS) and were diluted to a 5% solution. Following peptide treatment, incubation at 37° C. for 1 hour and centrifugation at 13,000 rpm, aliquots of the supernatant were transferred to a fresh 96-well microplate. To assess peptide cytotoxicity, the amount of hemoglobin released was measured at 545 nm. Percent lysis was calculated by assuming 100% release when human blood cells were treated with 2% Triton X-100 and 0% release when they were incubated with PBS buffer.

Series [1] deals with methicillin-resistant Staphylococcus aureus USA300 LAC. As to conditions: S. aureus USA300; Table 5 screen.
Description: The bacterial strains used in the study are Bacillus subtilis 168, methicillin-resistant Staphylococcus aureus USA300 LAC (Gram-positive), Escherichia coli K12, and Pseudomonas aeruginosa PAO1 (Gram negative). The antibacterial activities of the peptides were determined using the standard broth microdilution method (Wang et al. (2005) J. Biol. Chem., 280:5803-5811). In brief, the bacterial culture (90 μL) was treated with a series of peptide solutions (10 μL), each with two-fold dilution. After overnight incubation at 37° C., the microplate was read on a ChroMate® 4300 Microplate Reader at 630 nm (GMI, Ramsey, Minn.).
(§1) For the initial screen, antimicrobial activities of these peptides against S. aureus and E. coli were evaluated using the standard broth microdilution protocol (Wang, G. (2008) J. Biol. Chem., 283:32637-43).
The antibacterial activities of the peptides were determined using the standard broth microdilution method (Mishra et al. (2012) J. Am. Chem. Soc., 134:12426-12429; Wang et al. (2005) Biol. Chem., 280:5803-5811). Briefly, the bacterial culture was treated with a series of peptide solutions, each with two-fold dilution. After overnight incubation at 37° C., the microplate was read on a ChroMate® 4300 Microplate Reader at 630 nm (GMI, Ramsey, Minn.).
For another series, the system named is Escherichia coli K12. To be noted: E. coli K12; Table 5 screen.
The test system of another series is Gram-negative bacteria. The arrangement: key: Y, Yes; N, No. To be noted: data from the APD; cited from earlier work.
In the next series the test system is Gram-positive bacteria. The arrangement: key: Y, Yes; N, No. As to conditions: data from the APD; cited from earlier work.
Where [2] appears, read: E. coli K12 growth with chymotrypsin, peptide:protease molar ratio 25:1.
Setting [3] is: antimicrobial assay with chymotrypsin, peptide:protease molar ratio 40:1, E. coli K12 for peptides inactive against S. aureus.

Description for Escherichia coli K12: The antibacterial activities of the peptides were determined using the standard broth microdilution method (Wang et al. (2005) J. Biol. Chem., 280:5803-5811). In brief, the bacterial culture (90 μL) was treated with a series of peptide solutions (10 μL), each with two-fold dilution. After overnight incubation at 37° C., the microplate was read on a ChroMate® 4300 Microplate Reader at 630 nm (GMI, Ramsey, Minn.).
as §1

`CC[C@@H](C)[C@@H](NC(=O)[C@H](CCCNC(=N)N)NC(=O)[C@H](CCC(N)=O)NC(=O)[C@@H](NC(=O)[C@H](NC(=O)[C@H](CCCNC(=N)N)NC(=O)[C@H](CCCCN)NC(=O)[C@H](Cc1ccccc1)NC(=O)CN)[C@H](C)CC)C(C)C)C(=O)N[C@@H](CCCCN)C(=O)N[C@@H](CC(=O)O)C(=O)N[C@@H](Cc1ccccc1)C(=O)N[C@H](CC(C)C)C(=O)N[C@@H](CCCNC(=N)N)C(=O)N[C@@H](CC(N)=O)C(=O)N[C@@H](CC(C)C)C(=O)N[C@H](C(N)=O)C(C)C` [GF-17d3] (H-GFKR[dI]VQR[dI]KDF[dL]RNLV-NH2; N-terminus assumed): the “Stability (to chymotrypsin)” value on chymotrypsin (setting [2]) is recorded as “+”; on chymotrypsin (setting [3]) it was “+^c”.

For the molecule EKIGKEFKRIVQRIKDFLRN [EK-20], the “Stability (to chymotrypsin)” value on chymotrypsin (setting [3]) is “−”.

On to FFGKVLKLIRKIF-NH2 [DASamP1], for which the “HL50 (μM), concentration at which 50% red blood cells are lysed” value in the series on human erythrocytes came out at 25 µM.

With “FFHHIFRGIVHVGKTIHRLVTG [Piscidin 1, reference compound]”, the “HL50 (μM), concentration at which 50% red blood cells are lysed” value with human erythrocytes stood at 20 µM.

As to FKRIVQRIKDFLRNLVPRTE [FK-21], on chymotrypsin (setting [3]), the “Stability (to chymotrypsin)” value is given as “−”.

Regarding “GFKDLLKGAAKALVKTVLF-NH2 [Ascaphin-8, reference compound]”, the “HL50 (μM), concentration at which 50% red blood cells are lysed” value with human erythrocytes worked out at 45 µM.

GFKRIVQRIKDFLRNL-NH2 [GF-16]: at chymotrypsin (setting [3]), the “Stability (to chymotrypsin)” value was “−”.

As to GFKRIVQRIKDFLRNLV-NH2 [GF-17], the “Stability (to chymotrypsin)” value at chymotrypsin (setting [2]) and at chymotrypsin (setting [3]) was “−” each time.

On to “GFLSILKKVLPKVMAHMK-NH2 [Melectin, reference compound]”, for which the “MICs (μM) SA” value in series [1] fell in the range of 12.5 to 25 µM. Further, the “MICs (μM) EC” value against Escherichia coli K12 lay within 12.5 to 25 µM.

With GKEFKRIVQRIKDFLRNLVPR [GK-21], the “Stability (to chymotrypsin)” value at chymotrypsin (setting [2]) and on chymotrypsin (setting [3]) was “−” each time.

On to “GKPRPYSPRPTSHPRPIRV [Drosocin, reference compound]”, for which the “MICs (μM) SA” value in series [1] was greater than 100 µM. Also, the “MICs (μM) EC” value with Escherichia coli K12 is greater than 100 µM.

In the case of “GLLGLLGSVVSHVVPAIVGHF-NH2 [Maculatin 1.3, reference compound]”, the “HL50 (μM), concentration at which 50% red blood cells are lysed” value in the series on human erythrocytes is 25 µM.

Consider “GNNRPVYIPQPRPPHPRI [Apidaecin IA, reference compound]”, for which the “MICs (μM) SA” value in series [1] was greater than 100 µM. For the same molecule, the “MICs (μM) EC” value with Escherichia coli K12 is greater than 100 µM.

For GRFKRFRKKFKKLFKKLS-NH2 [BMAP-18], the “Stability (to chymotrypsin)” value on chymotrypsin (setting [3]) was “−”.

Regarding “HVDKKVADKVLLLKQLRIMRLLTRL [Spinigerin, reference compound]”, in series [1], the “MICs (μM) SA” value is greater than 81 µM. Moreover, the “MICs (μM) EC” value against Escherichia coli K12 is greater than 81 µM.

Take IKWKKLLRAAKRIL-NH2 [DASamP2]: the “HL50 (μM), concentration at which 50% red blood cells are lysed” value in the series on human erythrocytes came out at 75 µM.

On to “IWLTALKFLGKHAAKHLAKQQLSKL [Lycotoxin I, reference compound]”, for which, in the series on human erythrocytes, the “HL50 (μM), concentration at which 50% red blood cells are lysed” value stood at 125 µM.

Consider KIGKEFKRIVQRIKDFLRNLVP [KI-22], for which the “Stability (to chymotrypsin)” value at chymotrypsin (setting [2]) and on chymotrypsin (setting [3]) was “−” throughout.

“RPKHPIKHQGLPQEVLNENLLRF [Isracidin, reference compound]”: the “MICs (μM) SA” value in series [1] is greater than 100 µM. For the same molecule, the “MICs (μM) EC” value with Escherichia coli K12 is greater than 100 µM.

With “RQRVEELSKFSKKGAAARRRK [Misgurin, reference compound]”, the “MICs (μM) SA” value in series [1] is greater than 84 µM. Besides, in the series with Escherichia coli K12, the “MICs (μM) EC” value was greater than 84 µM.

With “Temporin A: temporin, APD ID 94, SEQ ID NO: 14 (FLPLIGRVLSGIL; listed as Rana temporaria)”, the “Activity G− (activity against Gram-negative bacteria)” value (shortened to “Activity G−”) in the series with Gram-negative bacteria is listed as “N”. Also, in the series on Gram-positive bacteria, the “Activity G+ (activity against Gram-positive bacteria)” value (“Activity G+” for short) was “Y”.

For the molecule “Temporin B: temporin, APD ID 95, SEQ ID NO: 19 (LLPIVGNLLKSLL; listed as Rana temporaria)”, the “Activity G−” value with Gram-negative bacteria is “N”. Further, the “Activity G+” value in the series on Gram-positive bacteria is reported as “Y”.

Take “Temporin C: temporin, APD ID 96, SEQ ID NO: 21 (LLPILGNLLNGLL; listed as Rana temporaria)”: the “Activity G−” value in the series on Gram-negative bacteria is “N”. For the same molecule, the “Activity G+” value in the series on Gram-positive bacteria is reported as “Y”.

As to “Temporin E: temporin, APD ID 97, SEQ ID NO: 16 (VLPIIGNLLNSLL; listed as Rana temporaria)”, the “Activity G−” value in the series on Gram-negative bacteria is reported as “N”. Moreover, in the series on Gram-positive bacteria, the “Activity G+” value is on record as “Y”.

Consider “Temporin F: temporin, APD ID 98, SEQ ID NO: 15 (FLPLIGKVLSGIL; listed as Rana temporaria)”, for which, in the series with Gram-negative bacteria, the “Activity G−” value is on record as “Y/Y”. Also, in the series on Gram-positive bacteria, the “Activity G+” value is “Y/Y”.

Consider “Temporin G: temporin, APD ID 101, SEQ ID NO: 12 (FFPVIGRILNGIL; listed as Rana temporaria)”, for which, in the series on Gram-negative bacteria, the “Activity G−” value was “Y/Y”. Moreover, in the series on Gram-positive bacteria, the “Activity G+” value is “Y/Y”.

As for “Temporin H: temporin, APD ID 859, SEQ ID NO: 17 (LSPNLLKSLL; listed as Rana temporaria)”, the “Activity G−” value in the series on Gram-negative bacteria is “N”. For the same molecule, the “Activity G+” value in the series with Gram-positive bacteria was “Y”.

Turning to “Temporin K: temporin, APD ID 100, SEQ ID NO: 20 (LLPNLLKSLL; listed as Rana temporaria)”, in the series on Gram-negative bacteria, the “Activity G−” value was “N”. The “Activity G+” value with Gram-positive bacteria is listed as “Y”.

For “Temporin L: temporin, APD ID 99, SEQ ID NO: 11 (FVQWFSKFLGRIL; listed as Rana temporaria)”, the “Activity G−” value in the series with Gram-negative bacteria is on record as “Y/Y”. Further, in the series with Gram-positive bacteria, the “Activity G+” value was “Y/Y”.

In the case of “Temporin-1Lb: temporin, APD ID 110, SEQ ID NO: 13 (NFLGTLINLAKKIM; listed as Rana luteiventris)”, the “Activity G−” value in the series with Gram-negative bacteria is “N”. Besides, the “Activity G+” value in the series with Gram-positive bacteria is given as “Y”.

Turning to “Temporin-SHf: temporin, APD ID 1534, SEQ ID NO: 10 (FFFLSRIF; listed as Pelophylax saharicus)”, in the series with Gram-negative bacteria, the “Activity G−” value was “Y/Y”. Besides, the “Activity G+” value in the series on Gram-positive bacteria is recorded as “Y/Y”.
